In patent publication US5352608A (priority 1992, dated 1994):
Entries after “also recorded” stand apart in the source; their conditions may differ.

What was measured:
R. sphaeroides 2.4.1 [1] = format: cell-based, Rhodobacter sphaeroides
[2] = tested on: Rhodobacter sphaeroides RS2; assay: Intrinsic HLR to TeO3^2- (MIC); format: cell-based; settings: for MIC of RS2 lower than strain 2.4.1, 2.4.7 or WS8: approximately
R. sphaeroides 2.4.1 [3] = assay: Isolation of tellurium from membrane fractions (Te^IV to Te^o conversion); format: cell-based, Rhodobacter sphaeroides
Method: Two one-liter cultures of R. sphaeroides 2.4.1 were grown photoheterotrophically (10 W/m^2 incident light intensity) in SMM containing 0.4% succinate to a cell density of approximately 1.5 1.5×10^9 cells/ml. Prior to inoculation one flask was supplemented with 275 mg K2 TeO3 (equivalent to 138.3 mg Te^IV) to give a final medium concentration of […] K2 TeO3.
850 mg of crude membrane-metal complex was isolated. After purification and extraction with acetone:methanol and ethanol, 203 mg of a finely-divided metallic material resulted. Analysis of a 50.4 mg sample of this material identified 23.2 mg of Te^o (a minimum net purity of 46%). The minimum Te^o deposited in the one-liter culture, therefore, was 93 mg (203 mg×0.46) or 0.7333 mmole. Since the growth medium initially contained 138.3 mg of Te^IV, a minimum Te^IV to Te^o conversion of 67% was obtained.

[4] = tested on: Rhodopseudomonas viridis F; assay: Intrinsic HLR to TeO3^2- (MIC); format: cell-based
[5] = tested on: Rhodobacter capsulatus B10; assay: Intrinsic HLR to TeO3^2- (MIC); format: cell-based
[6] = tested on: tellurite reductase activity, R. sphaeroides PRKA^- B^-; assay: TeO3^2- -dependent FADH2 oxidation in subcellular fractions; format: biochemical, Rhodobacter sphaeroides; settings: 100 μg/ml K2 TeO3
R. sphaeroides CFXB^- = assay: Intrinsic HLR to tellurite in R. sphaeroides mutants (MIC); format: cell-based, Rhodobacter sphaeroides; settings: for MIC K2 TeO3: SMM succinate
Method: (§1) All Proteobacteria were grown at 30° C. with the exception of E. coli which was cultured at 37° C. on a Gyrotary shaker. Cultures of R. sphaeroides and R. gelatinosus were grown in LB, YP, or SMM containing either 0.4% succinate, 0.4% malate, or 0.4% butyrate as a carbon source. Cultures of R. capsulatus were grown in RCVB minimal medium containing 0.4% malate as a carbon source; R. rubrum was grown in SMM containing 0.4% malate, and 0.1% yeast extract. R. palustris and R. viridis were grown in SMM containing 0.4% malate, 0.1% yeast extract, and 50 μg/ml each of p-aminobenzoic acid and cyanocobalamin. […] Anaerobic-dark growth of R. sphaeroides on SMM medium containing DMSO, and photoheterotrophic growth conditions have been previously reported.
(§2) Several growth conditions were examined to determine requirements for tellurite reduction in vivo. Table 5 indicates the growth conditions tested.
(§3) ^a MIC were determined in SMM containing succinate at 30° C.
(§4) ^c Supplemented with 60 mM DMSO.

R. sphaeroides 2.4.1ΔS = assay: as above; format: cell-based, Rhodobacter sphaeroides; settings: for MIC K2 TeO3: SMM succinate
Method: as §1, §2, §3, §4

R. sphaeroides PUFB1 = assay: as above; format: cell-based, Rhodobacter sphaeroides; settings: SMM succinate; aerobic; ( ) = resistance but no deposition of Te^0
Method: as §1, §2, §3, §4

[7] = tested on: R. sphaeroides CFXA^- B^-; assay: as above; format: cell-based, Rhodobacter sphaeroides; settings: for MIC K2 TeO3: SMM succinate
Method: as §1, §2, §3, §4

R. sphaeroides PRKA^- = assay: as above; format: cell-based, Rhodobacter sphaeroides; settings: for MIC K2 TeO3: SMM succinate; for Increase in TeO3^2- sensitivity: prkA deletion
Method: as §1, §2, §3, §4

R. sphaeroides PUHA1 = assay: as above; format: cell-based, Rhodobacter sphaeroides; settings: for MIC K2 TeO3: SMM succinate
Method: as §1, §2, §3, §4

R. sphaeroides BC17 = assay: as above; format: cell-based, Rhodobacter sphaeroides; settings: for MIC K2 TeO3: SMM succinate
Method: as §1, §2, §3, §4

R. sphaeroides MM1006 = assay: as above; format: cell-based, Rhodobacter sphaeroides; settings: SMM succinate; aerobic; ( ) = resistance but no deposition of Te^0
Method: as §1, §2, §3, §4

R. sphaeroides PUC705B = assay: as above; format: cell-based, Rhodobacter sphaeroides; settings: SMM succinate
Method: as §1, §2, §3, §4

R. sphaeroides CFXA^- = assay: as above; format: cell-based, Rhodobacter sphaeroides; settings: for MIC K2 TeO3: SMM succinate; for Increase in TeO3^2- sensitivity: cfxA deletion
Method: as §1, §2, §3, §4

R. sphaeroides CYCA1 = assay: as above; format: cell-based, Rhodobacter sphaeroides; settings: SMM succinate; aerobic; ( ) = resistance but no deposition of Te^0
Method: as §1, §2, §3, §4

[8] = tested on: R. sphaeroides PRKA^- B^-; assay: as above; format: cell-based, Rhodobacter sphaeroides; settings: for MIC K2 TeO3: SMM succinate
Method: as §1, §2, §3, §4

R. sphaeroides 2.4.1-Ga = assay: as above; format: cell-based, Rhodobacter sphaeroides; settings: for MIC K2 TeO3: SMM succinate
Method: as §1, §2, §3, §4

R. sphaeroides PRKB^- = assay: as above; format: cell-based, Rhodobacter sphaeroides; settings: for MIC K2 TeO3: SMM succinate
Method: as §1, §2, §3, §4

[9] = tested on: Rhodobacter sphaeroides 2.4.1; format: cell-based
[10] = aerobic, ( ) = resistance but no deposition of Te^0
[11] = photosynthetic and anaerobic-dark/DMSO, at least

O=[Te]([O-])[O-].[K+].[K+] [K2 TeO3]
Appearance of cells / metal deposit (R. sphaeroides 2.4.1 [1]): intracellular accumulation of a dense metal deposit; also recorded: produced a black deposit which did not diffuse into the medium | Gas evolution (R. sphaeroides 2.4.1 [1]): +++ + | Gas evolution in words (R. sphaeroides 2.4.1 [1]): Copious gas evolution | MIC K2 TeO3 ([2]; aerobic, minimal medium): 400 µg/mL | MIC of RS2 lower than strain 2.4.1, 2.4.7 or WS8 [2]: approximately two-to three fold | MIC of RS2 lower than strain 2.4.1, 2.4.7 or WS8 ([2]; listed as tellurite): approximately two- to three-fold | MIC K2 TeO3 ([2]; photosynthetic, 10 W/m^2): 250 µg/mL | Te^IV to Te^o conversion (R. sphaeroides 2.4.1 [3]; 250 μg/ml K2 TeO3, photoheterotrophic 10 W/m^2, minimum): ≥ 67% | Localization of deposit after subcellular fractionation (R. sphaeroides 2.4.1 [3]; discontinuous sucrose gradient): localized to the cytoplasmic membrane | MIC K2 TeO3 ([4]; aerobic, minimal medium): 80 µg/mL | MIC K2 TeO3 ([4]; photosynthetic, 10 W/m^2): 50 µg/mL | Resistance in words ([5]; aerobic): intrinsic high level resistance | MIC K2 TeO3 ([5]; aerobic, minimal medium): 800 µg/mL | MIC relative to E. coli ([5]; aerobic, tellurite): at least 80 times | MIC K2 TeO3 ([5]; photosynthetic, 10 W/m^2): 500 µg/mL | FADH2 oxidation ([6]; membrane): 200 nmol/min/mg | FADH2 oxidation ([6]; periplasm): 3 nmol/min/mg | MIC K2 TeO3 (R. sphaeroides CFXB^-; aerobic): 750 µg/mL | MIC K2 TeO3 (R. sphaeroides CFXB^-; anaerobic-dark, 60 mM DMSO): 150 µg/mL | MIC K2 TeO3 (R. sphaeroides CFXB^-; photosynthetic 10 W/m^2): 650 µg/mL | Diminution of HLR to TeO3^2- (R. sphaeroides CFXB^-; single mutation in cfxB): 10-20% | Effect of 42-kb plasmid deletion on HLR (R. sphaeroides 2.4.1ΔS): did not diminish HLR to TeO3^2- | MIC K2 TeO3 (R. sphaeroides 2.4.1ΔS; aerobic): 850 µg/mL | MIC K2 TeO3 (R. sphaeroides 2.4.1ΔS; anaerobic-dark, 60 mM DMSO): 150 µg/mL | MIC K2 TeO3 (R. sphaeroides 2.4.1ΔS; photosynthetic 10 W/m^2): 600 µg/mL | MIC K2 TeO3 (R. sphaeroides PUFB1): 400 µg/mL | MIC K2 TeO3 [7, 10]: 200 µg/mL | MIC K2 TeO3 ([7]; anaerobic-dark, 60 mM DMSO): < 10 µg/mL | Concentration to which strain is resistant ([7]; aerobic): < 200 µg/mL | MIC K2 TeO3 (R. sphaeroides PRKA^-; aerobic): 350 µg/mL | MIC K2 TeO3 (R. sphaeroides PRKA^-; anaerobic-dark, 60 mM DMSO): 60 µg/mL | MIC K2 TeO3 (R. sphaeroides PRKA^-; photosynthetic 10 W/m^2): 100 µg/mL | Increase in TeO3^2- sensitivity (R. sphaeroides PRKA^-; aerobic): two-fold | Increase in TeO3^2- sensitivity (R. sphaeroides PRKA^-; [11]): at least three- to five-fold | MIC K2 TeO3 (R. sphaeroides PUHA1; aerobic): < 10 µg/mL | MIC K2 TeO3 (R. sphaeroides PUHA1; anaerobic-dark, 60 mM DMSO): < 10 µg/mL | Concentration to which strain is sensitive (R. sphaeroides PUHA1; all growth conditions): 10 µg/mL | MIC K2 TeO3 (R. sphaeroides BC17; aerobic): < 10 µg/mL | MIC K2 TeO3 (R. sphaeroides BC17; anaerobic-dark, 60 mM DMSO): < 10 µg/mL | Concentration to which strain is sensitive (R. sphaeroides BC17; all growth conditions): 10 µg/mL | MIC K2 TeO3 (R. sphaeroides MM1006): 400 µg/mL | MIC K2 TeO3 (R. sphaeroides PUC705B; aerobic): 850 µg/mL | MIC K2 TeO3 (R. sphaeroides PUC705B; anaerobic-dark, 60 mM DMSO): 150 µg/mL | MIC K2 TeO3 (R. sphaeroides PUC705B; photosynthetic 10 W/m^2): 500 µg/mL | MIC K2 TeO3 (R. sphaeroides CFXA^-; aerobic): 400 µg/mL | MIC K2 TeO3 (R. sphaeroides CFXA^-; anaerobic-dark, 60 mM DMSO): 50 µg/mL | MIC K2 TeO3 (R. sphaeroides CFXA^-; photosynthetic 10 W/m^2): 100 µg/mL | Increase in TeO3^2- sensitivity (R. sphaeroides CFXA^-; aerobic): two-fold | Increase in TeO3^2- sensitivity (R. sphaeroides CFXA^-; [11]): at least three- to five-fold | MIC K2 TeO3 (R. sphaeroides CYCA1): 400 µg/mL | MIC K2 TeO3 [8, 10]: 150 µg/mL | MIC K2 TeO3 ([8]; anaerobic-dark, 60 mM DMSO): < 10 µg/mL | Concentration to which strain is resistant ([8]; aerobic): < 200 µg/mL | MIC K2 TeO3 (R. sphaeroides 2.4.1-Ga; aerobic): 600 µg/mL | MIC K2 TeO3 (R. sphaeroides 2.4.1-Ga; anaerobic-dark, 60 mM DMSO): 100 µg/mL | MIC K2 TeO3 (R. sphaeroides 2.4.1-Ga; photosynthetic 10 W/m^2): 450 µg/mL | Increase in TeO3^2- sensitivity (R. sphaeroides 2.4.1-Ga; vs wild-type): 20% | MIC K2 TeO3 (R. sphaeroides PRKB^-; aerobic): 800 µg/mL | MIC K2 TeO3 (R. sphaeroides PRKB^-; anaerobic-dark, 60 mM DMSO): 150 µg/mL | MIC K2 TeO3 (R. sphaeroides PRKB^-; photosynthetic 10 W/m^2): 500 µg/mL | Diminution of HLR to TeO3^2- (R. sphaeroides PRKB^-; single mutation in prkB): 10-20% | MIC Low-PO4^3- Medium [9]: 600 µg/mL | MIC Standard Medium [9]: 600 µg/mL | MIC ratio 10 W/m^2 vs 3 W/m^2 [9]: at least two-fold | MIC ratio aerobically- vs. photosynthetically-grown [9]: two- to three-fold | MIC relative to E. coli [9]: at least 80 times | Reduction in TeO3^2- resistance with supplement [9]: thirty- to forty-fold | Relative toxicity [9]: SeO4^2- >TeO4^2- >TeO3^2- >SeO3^2- >Rh2 O3.5H2 O | Resistance in words [9]: intrinsic high level resistance
